A short description of series [1]: Drug excretion in iv dosed human assessed as compound excreted into bile after 6 to 8 hrs by duodenal perfusion method. It is filed as ADME, organism-based. As to conditions: read-out: Drug excretion.
A short description of series [2]: Drug excretion in beagle dog assessed as compound excreted into bile at 20 mg/kg, iv. As to conditions: read-out: Drug excretion. Also on record: dose 20 mg/kg, route intravenous. Format: ADME, organism-based, Canis lupus familiaris.
The test system of series [3] is Canis familiaris. Description: Unbound biliary clearance in beagle dog at 20 mg/kg, iv. As to conditions: in vivo. Details: dose 20 mg/kg, route intravenous. Format: ADME, organism-based, Canis lupus familiaris, Bile.
The test system of series [4] is Rattus norvegicus. Description: Unbound biliary clearance in Sprague-Dawley rat at 20 mg/kg, iv. It is filed as ADME, organism-based, Bile. Details: dose 20 mg/kg, route intravenous. As to conditions: in vivo.
Series [5] in a line: Drug excretion in Sprague-Dawley rat assessed as compound excreted into bile at 20 mg/kg, iv. Format: ADME, organism-based. Also on record: dose 20 mg/kg, route intravenous. As to conditions: read-out: Drug excretion.
The test system of series [6] is Rattus norvegicus. Description: Total biliary clearance in Sprague-Dawley rat at 20 mg/kg, iv. Details: dose 20 mg/kg, route intravenous. Format: ADME, organism-based, Bile. As to conditions: in vivo.
In series [7] the test system is Homo sapiens. Description: Total biliary clearance in iv dosed human after 6 to 8 hrs by duodenal perfusion method. As to conditions: in vivo. It is filed as ADME, organism-based, Bile.
Series [8] deals with Canis familiaris. Description: Total biliary clearance in beagle dog at 20 mg/kg, iv. As to conditions: in vivo. Also on record: dose 20 mg/kg, route intravenous. It is filed as ADME, organism-based, Canis lupus familiaris, Bile.
Series [9] relates to Homo sapiens. Description: Unbound biliary clearance in iv dosed human after 6 to 8 hrs by duodenal perfusion method. It is filed as ADME, organism-based, Bile. As to conditions: in vivo.
The nature of series [10]: Drug excretion in iv dosed rat assessed as compound excreted into bile. It is filed as ADME, organism-based. As to conditions: read-out: Drug excretion.
Series [11] can be described thus: Drug excretion in po dosed human assessed as compound excreted into bile after 24 hrs by T-tube method. It is filed as ADME, organism-based. As to conditions: read-out: Drug excretion.
Series [12] in a line: Drug excretion in human assessed as compound excreted into bile at 50 mg, iv after 24 hrs by T-tube method. It is filed as ADME, organism-based. As to conditions: read-out: Drug excretion.
A short description of series [13]: Drug excretion in iv dosed human assessed as compound excreted into bile after 24 hrs by T-tube method. It is filed as ADME, organism-based. As to conditions: read-out: Drug excretion.
The subject of series [14] is Canis familiaris. Put plainly: Unbound biliary clearance in iv dosed dog. As to conditions: in vivo. Format: ADME, organism-based, Canis lupus familiaris, Bile.
Series [15] relates to Rattus norvegicus. Put plainly: Total biliary clearance in iv dosed rat. It is filed as ADME, organism-based, Bile. As to conditions: in vivo.
Series [16] concerns Homo sapiens. Description: Unbound biliary clearance in iv dosed human after 24 hrs by T-tube method. It is filed as ADME, organism-based, Bile. As to conditions: in vivo.
Series [17] concerns Homo sapiens. Description: Total biliary clearance in iv dosed human after 24 hrs by T-tube method. It is filed as ADME, organism-based, Bile. As to conditions: in vivo.
The subject of series [18] is Canis familiaris. Put plainly: Total biliary clearance in iv dosed dog. Format: ADME, organism-based, Canis lupus familiaris, Bile. As to conditions: in vivo.
Series [19] relates to Rattus norvegicus. Put plainly: Unbound biliary clearance in iv dosed rat. Format: ADME, organism-based, Bile. As to conditions: in vivo.
Series [20] relates to Rattus norvegicus. Put plainly: Total biliary clearance in Sprague-Dawley rat at 5 mg/kg, iv. As to conditions: in vivo. Format: ADME, organism-based, Bile. Details: dose 5 mg/kg, route intravenous.
In series [21] the test system is Rattus norvegicus. Put plainly: Unbound biliary clearance in Sprague-Dawley rat at 5 mg/kg, iv. As to conditions: in vivo. Format: ADME, organism-based, Bile. Also on record: dose 5 mg/kg, route intravenous.
The nature of series [22]: Drug excretion in Sprague-Dawley rat assessed as compound excreted into bile at 5 mg/kg, iv. Format: ADME, organism-based. Also on record: dose 5 mg/kg, route intravenous. As to conditions: read-out: Drug excretion.
Series [23] can be described thus: Drug excretion in iv dosed dog assessed as compound excreted into bile. It is filed as ADME, organism-based, Canis lupus familiaris. As to conditions: read-out: Drug excretion.
Series [24] deals with Rattus norvegicus. Put plainly: Total biliary clearance in iv dosed Wistar rat. As to conditions: in vivo. It is filed as ADME, organism-based, Bile.
Series [25] deals with Rattus norvegicus. Description: Unbound biliary clearance in iv dosed Wistar rat. It is filed as ADME, organism-based, Bile. As to conditions: in vivo.
Series [26] is described as follows: Drug excretion in iv dosed human assessed as compound excreted into bile after 8 hrs by T-tube method. As to conditions: read-out: Drug excretion. Format: ADME, organism-based.
Series [27] is described as follows: Drug excretion in iv dosed Wistar rat assessed as compound excreted into bile. It is filed as ADME, organism-based. As to conditions: read-out: Drug excretion.
The subject of series [28] is Homo sapiens. Put plainly: Total biliary clearance in iv dosed human after 8 hrs by T-tube method. As to conditions: in vivo. Format: ADME, organism-based, Bile.
In series [29] the test system is Homo sapiens. Description: Unbound biliary clearance in iv dosed human after 8 hrs by T-tube method. Format: ADME, organism-based, Bile. As to conditions: in vivo.
Series [30] deals with Homo sapiens. Description: Total biliary clearance in human at 1 nmol/l, iv after 8 hrs by duodenal perfusion method. Format: ADME, organism-based, Bile. As to conditions: in vivo.
Series [31] has as its system Rattus norvegicus. Description: Unbound biliary clearance in iv dosed Sprague-Dawley rat. Format: ADME, organism-based, Bile. As to conditions: in vivo.
Series [32] is described as follows: Drug excretion in iv dosed Sprague-Dawley rat assessed as compound excreted into bile. It is filed as ADME, organism-based. As to conditions: read-out: Drug excretion.
The subject of series [33] is Rattus norvegicus. Description: Total biliary clearance in iv dosed Sprague-Dawley rat. Format: ADME, organism-based, Bile. As to conditions: in vivo.
In series [34] the test system is Homo sapiens. Put plainly: Unbound biliary clearance in human at 1 nmol/l, iv after 8 hrs. Format: ADME, organism-based, Bile. As to conditions: in vivo.
Series [35] is described as follows: Drug excretion in human assessed as compound excreted into bile at 1 nmol/l, iv after 8 hrs. As to conditions: read-out: Drug excretion. Format: ADME, organism-based.
In series [36] the test system is Homo sapiens. Description: Unbound biliary clearance in human at 1 gm, iv after 8 hrs by T-tube method. Format: ADME, organism-based, Bile. As to conditions: in vivo.
For series [37], the system named is Rattus norvegicus. Put plainly: Total biliary clearance in Sprague-Dawley rat at 300 mg/kg, iv. Format: ADME, organism-based, Bile. Also on record: dose 300 mg/kg, route intravenous. As to conditions: in vivo.
The subject of series [38] is Rattus norvegicus. Put plainly: Unbound biliary clearance in Sprague-Dawley rat at 300 mg/kg, iv. It is filed as ADME, organism-based, Bile. Also on record: dose 300 mg/kg, route intravenous. As to conditions: in vivo.
Series [39] is described as follows: Drug excretion in Sprague-Dawley rat assessed as compound excreted into bile at 300 mg/kg, iv. Format: ADME, organism-based. As to conditions: read-out: Drug excretion. Details: dose 300 mg/kg, route intravenous.
The nature of series [40]: Drug excretion in human assessed as compound excreted into bile at 1 gm, iv after 8 hrs by T-tube method. As to conditions: read-out: Drug excretion. It is filed as ADME, organism-based.
For series [41], the system named is Homo sapiens. Description: Total biliary clearance in human at 1 gm, iv after 8 hrs by T-tube method. As to conditions: in vivo. Format: ADME, organism-based, Bile.

With `CO/N=C(\C(=O)N[C@@H]1C(=O)N2C(C(=O)O)=C(CSc3nc(=O)c(=O)[nH]n3C)CS[C@H]12)c1csc(N)n1` [CEFTRIAXONE], the figures for the dose excreted in series [1], in [2] and in series [5] were 30%, 63% and 62%, respectively. The CL free in series [3] was 2.907 mL/min/kg; in [4], 12.73 mL/min/kg; in [9], 0.933 mL/min/kg. In addition, the CL worked out at 0.82 mL/min/kg in series [6], 0.07 mL/min/kg in [7] and 2.5 mL/min/kg in series [8].
In the case of `CCC(=O)C(CC(C)N(C)C)(c1ccccc1)c1ccccc1` (configuration not stated) [METHADONE], the dose excreted in series [10] came to 9%. The dose excreted at 24 h in [11] came to 0.06%.
Consider `CNC(=C[N+](=O)[O-])NCCSCc1ccc(CN(C)C)o1` [RANITIDINE], for which the dose excreted in series [10] came out at 5%. Moreover, in series [12], the dose excreted at 24 h came out at 1.5%.
On to `CN(Cc1cnc2nc(N)nc(N)c2n1)c1ccc(C(=O)N[C@@H](CCC(=O)O)C(=O)O)cc1` [METHOTREXATE], for which the dose excreted at 24 h in series [13] is 10%. Also, the figures for the CL free in series [14], in [16] and in series [19] were 0.344 mL/min/kg, 1.108 mL/min/kg and 12.47 mL/min/kg, respectively. Moreover, in series [10], the dose excreted was 64%. The CL in [15] amounted to 9.6 mL/min/kg; in [17], 0.048 mL/min/kg; in series [18] it was 0.217 mL/min/kg.
On to `CC[C@H](C)C(=O)O[C@H]1C[C@H](O)C=C2C=C[C@H](C)[C@H](CC[C@@H](O)C[C@@H](O)CC(=O)O)[C@H]21` [PRAVASTATIN], for which the dose excreted at 24 h in series [13] came to 23%. The dose excreted in series [10] came out at 40%. Further, the CL in series [15] was found to be 27.5 mL/min/kg; in [17], 3.105 mL/min/kg. Moreover, the figures for the CL free in series [16] and in series [19] were 6.21 mL/min/kg and 78.57 mL/min/kg, respectively.
On to `COc1cccc2c1C(=O)c1c(O)c3c(c(O)c1C2=O)C[C@@](O)(C(=O)CO)C[C@@H]3O[C@H]1C[C@H](N)[C@H](O)[C@H](C)O1` [DOXORUBICIN], for which the CL in series [20] was 3.68 mL/min/kg; in series [17], 2.035 mL/min/kg; in series [18], 1.72 mL/min/kg. Also, in [13], the dose excreted at 24 h worked out at 14%. Besides, the CL free in series [21] is 10.82 mL/min/kg; in [14] it was 5.059 mL/min/kg; in [16], 7.268 mL/min/kg. The dose excreted in [22] was determined as 17%; in [23] it was 10%.
For the molecule `O=C([O-])Cc1ccccc1Nc1c(Cl)cccc1Cl.[Na+]` [DICLOFENAC SODIUM], the CL in series [24] amounted to 0.85 mL/min/kg; in series [28], 0.042 mL/min/kg. Also, the CL free in series [25] was found to be 94.44 mL/min/kg; in series [29] it was 8.4 mL/min/kg. The dose excreted at 8 h in series [26] came out at 1%. The dose excreted in series [27] was 5%.
Regarding `C[C@H]1O[C@@H](O[C@H]2[C@@H](O)C[C@H](O[C@H]3[C@@H](O)C[C@H](O[C@H]4CC[C@@]5(C)[C@H](CC[C@@H]6[C@@H]5C[C@@H](O)[C@]5(C)[C@@H](C7=CC(=O)OC7)CC[C@]65O)C4)O[C@@H]3C)O[C@@H]2C)C[C@H](O)[C@@H]1O` [DIGOXIN], the values for the CL in [30], in series [33] and in series [18] were 1.595 mL/min/kg, 3.03 mL/min/kg and 1.313 mL/min/kg, respectively. Moreover, the CL free in [14] was found to be 2.68 mL/min/kg; in [31] it was 4.329 mL/min/kg; in series [34], 2.279 mL/min/kg. In addition, the dose excreted in series [32] was 31%; in series [23], 7%. In addition, the dose excreted at 8 h in [35] stood at 41%.
For `CO[C@@]1(NC(=O)C(C(=O)O)c2ccc(O)cc2)C(=O)N2C(C(=O)O)=C(CSc3nnnn3C)CO[C@@H]21` (some centres not stated) [MOXALACTAM], the values for the CL free in series [36] and in series [38] were 0.008 mL/min/kg and 4.294 mL/min/kg, respectively. In addition, the figures for the CL in [37] and in series [41] were 2.19 mL/min/kg and 0.003 mL/min/kg, respectively. In [39], the dose excreted is 25%. Besides, the dose excreted at 8 h in [40] is 0.5%.

Source of the values: ChEMBL document CHEMBL3526096, “Species differences in biliary clearance and possible relevance of hepatic uptake and efflux transporters involvement” (Drug Metab Dispos, 2013).
